Reference: patent US20250213533A1 (GH RESEARCH IRELAND LIMITED, priority 2022, published 2025)

How the values were obtained:
[1] = Pharmacokinetics of 5-MeO-DMT and bufotenine after inhalation of 5-MeO-DMT in subjects; type: in vivo, human
5-HT1A receptors = target: T1, 5-HT1A receptors (Homo sapiens, UniProt P08908); experiment: Radioligand binding ([3H]8-OH-DPAT) to 5-HT1A receptors in post-mortem human hippocampus membranes
T1 construct: 5-HT1A and 5-HT2A receptors in post-mortem human brain tissue from the hippocampus and frontal cortex, respectively; tissue Edinburgh Sudden Death Brain Bank; host or cells: post-mortem human hippocampus membranes
T1 sequence (P08908 1-422): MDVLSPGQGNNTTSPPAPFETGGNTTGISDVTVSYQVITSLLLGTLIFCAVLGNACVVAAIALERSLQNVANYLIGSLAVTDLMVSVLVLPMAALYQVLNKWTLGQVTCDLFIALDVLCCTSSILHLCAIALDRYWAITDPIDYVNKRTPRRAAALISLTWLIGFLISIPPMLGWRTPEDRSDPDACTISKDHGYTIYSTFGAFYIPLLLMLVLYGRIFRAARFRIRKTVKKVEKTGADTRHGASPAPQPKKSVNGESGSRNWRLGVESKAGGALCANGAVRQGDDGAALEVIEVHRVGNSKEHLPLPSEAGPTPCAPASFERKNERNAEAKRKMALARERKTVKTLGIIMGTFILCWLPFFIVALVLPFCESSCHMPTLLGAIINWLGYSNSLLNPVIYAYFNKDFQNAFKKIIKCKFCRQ

5-HT2A receptors = target: T2, 5-HT2A receptors (Homo sapiens, UniProt P28223); experiment: Radioligand binding ([3H]MDL-100,907) to 5-HT2A receptors in post-mortem human frontal cortex membranes
T2 construct: 5-HT1A and 5-HT2A receptors in post-mortem human brain tissue from the hippocampus and frontal cortex, respectively; tissue Edinburgh Sudden Death Brain Bank; host or cells: post-mortem human frontal cortex membranes
T2 sequence (P28223 whole entry): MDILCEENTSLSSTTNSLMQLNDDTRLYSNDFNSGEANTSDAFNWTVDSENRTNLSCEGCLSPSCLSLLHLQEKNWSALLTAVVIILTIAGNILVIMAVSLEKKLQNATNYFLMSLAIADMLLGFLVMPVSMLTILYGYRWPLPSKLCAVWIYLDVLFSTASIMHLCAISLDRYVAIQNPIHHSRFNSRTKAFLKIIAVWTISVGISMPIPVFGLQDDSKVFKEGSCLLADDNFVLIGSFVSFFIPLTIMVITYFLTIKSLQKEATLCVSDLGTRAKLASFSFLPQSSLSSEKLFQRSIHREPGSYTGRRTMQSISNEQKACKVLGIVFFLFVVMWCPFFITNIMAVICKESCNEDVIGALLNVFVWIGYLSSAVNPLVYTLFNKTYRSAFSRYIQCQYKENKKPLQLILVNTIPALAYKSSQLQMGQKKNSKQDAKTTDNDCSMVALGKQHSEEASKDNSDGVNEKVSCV

With COc1ccc2[nH]cc(CCN(C)C)c2c1 [5-MeO-DMT] the detectability in plasma ([1]; 3 hours after inhalation, 6, 12, 18 mg) was “no longer detectable”, the absorption and distribution ([1]; inhaled) was “rapid absorption and distribution” and the “pharmacokinetic measurements with uptitration dosing schemes compared with single doses” value ([1]; uptitration, inhaled) was “Substantially similar results”. The “affinity for 5-HT1A receptors (in words)” value (5-HT1A receptors) was “high affinity” and the “affinity for 5-HT2A receptors (in words)” value (5-HT2A receptors) was “comparatively weak affinity”.
